Source: patent publication US12285418B1, “2-(5-aminopyridin-2-yl)-N-benzylacetamides and use thereof in the treatment of acute myeloid leukemia” (University of Jeddah, priority 2024, dated 2025)

Experiments:
Format in all cases: cell-based
K562 cells = experiment: Cell viability assay (CellTiter-Blue), K562; conditions: Homo sapiens, 48 h incubation, mean±SD, read-out: IC50 against K562 cells
Description: (§1) Cell viability was determined using the CellTiter®-Blue Cell Viability Assay kit (Promega, Madison, WI, USA) as previously described (Alkhatabi et al., 2022). Approximately 10^4 cells were counted, plated in a 96-well plate in the presence of test compounds ranging from 0.01 to 40 μM in quadruplicate, and incubated for 48 h at 37° C. in a humidified incubator. After the incubation period was completed, 20 μL of CellTiter®-Blue Cell Viability Assay reagent was added to each well and incubated for an additional 2 h for fluorescence development. Florescence was measured at Ex/Em 540/590 on a SpectraMax® i3 Multi-Mode microplate reader (Molecular Devices, LLC, San Jose, CA, USA) and plotted against the drug concentration to determine the IC50 of the test compounds. The IC50 was obtained by a nonlinear regression model using GraphPad Prism 10.1.1 (GraphPad Software, Inc., USA).
(§2) The half-maximal inhibitory concentration (IC50) of each drug was calculated using the GraphPad Prism software version 10.1.1. Flow cytometric data were analyzed using Diva software provided with the BD FACSCanto II Clinical Flow Cytometry System (BD Biosciences, USA). Student's paired t-test and Two-way ANOVA were used to compare data points. Data are presented as mean+SD, and at least three independent experiments were performed. […]

KG1a cells = experiment: Cell viability assay (CellTiter-Blue), KG1a; conditions: Homo sapiens, KG-1a, 48 h incubation, mean±SD, read-out: IC50 against KG1a cells
Description: as §1, §2

HL60 cells = experiment: Cell viability assay (CellTiter-Blue), HL60; conditions: Homo sapiens, HL-60, 48 h incubation, mean±SD, read-out: IC50 against HL60 cells
Description: as §1, §2

MV4-11 cells = experiment: Cell viability assay (CellTiter-Blue), MV4-11; conditions: Homo sapiens, 48 h incubation, mean±SD, read-out: IC50 against MV4-11 cells
Description: as §1, §2

Row | IC50 (K562 cells) | IC50 (HL60 cells) | IC50 (MV4-11 cells) | SMILES | IC50 (KG1a cells)
1 | > 10 µM | > 10 µM | > 10 µM | O=C(Cc1ccc(NC(=O)c2ccccc2O)cn1)NCc1ccccc1 [Compound III, N-(6-(2-(Benzylamino)-2-oxoethyl)pyridin-3-yl)-2-hydroxybenzamide] | > 10 µM
2 | > 10 µM | > 10 µM | > 10 µM | O=C(Cc1ccc(/N=C2\OC(=O)c3ccccc32)cn1)NCc1ccccc1 [Compound II, (Z)-N-benzyl-2-(5-((3-oxoisobenzofuran-1 (3H)-ylidene)amino)pyridin-2-yl) acetamide] | > 10 µM
